Test results from ChEMBL document CHEMBL1151026, “Synthesis and pharmacological evaluation of the enantiomers of the dopamine autoreceptor agonist PD 135385” (Bioorg Med Chem Lett, 1993).

Experiments:
D(2) dopamine receptor [1] = target: T1, D(2) dopamine receptor (Rattus norvegicus, UniProt P61169); assay: In vitro agonist binding affinity was determined by displacing the [3H]N-propylnorapomorphine ([3H]NPA) in rat striatal Dopamine receptor D2
D(2) dopamine receptor [2] = target: T1, D(2) dopamine receptor; assay: Displacement of [3H]spiperone from rat striatal Dopamine receptor D2
D(1A) dopamine receptor = D(1A) dopamine receptor (Rattus norvegicus, UniProt P18901); assay: In vitro antagonist binding affinity was determined by displacing the [3H]-SCH- in rat striatal Dopamine receptor D1
Sequence of D(1A) dopamine receptor (P18901 whole entry): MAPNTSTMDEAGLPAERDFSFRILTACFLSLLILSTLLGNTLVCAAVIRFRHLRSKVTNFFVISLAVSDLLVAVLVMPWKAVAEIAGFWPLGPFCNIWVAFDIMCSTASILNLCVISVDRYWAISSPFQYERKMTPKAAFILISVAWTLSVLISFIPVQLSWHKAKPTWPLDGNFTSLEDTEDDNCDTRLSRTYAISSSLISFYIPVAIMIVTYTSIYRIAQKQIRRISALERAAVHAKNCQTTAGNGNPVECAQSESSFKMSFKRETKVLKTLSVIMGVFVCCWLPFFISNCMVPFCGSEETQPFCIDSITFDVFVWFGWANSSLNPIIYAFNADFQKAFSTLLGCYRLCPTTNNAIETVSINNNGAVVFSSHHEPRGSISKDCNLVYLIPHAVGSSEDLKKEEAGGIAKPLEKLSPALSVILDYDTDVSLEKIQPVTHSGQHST

Rattus norvegicus [3] = assay: Tested for % rats with stereotypy at the dose of 67 mg/Kg administered perorally; type: functional
Rattus norvegicus [4] = assay: Percent reversal of the increase inDOPA levels in the striatum of GBL-treated rats at 10 mg/kg administered intraperitoneally; type: functional; conditions: route intraperitoneal; for Reversal % at 10 mg/kg: ip
Rattus norvegicus [5] = assay: Tested for inhibition of dopamine neuronal firing in rat at the dose of 2.5 mg/Kg by intraperitoneal administration; type: functional; conditions: ip
Rattus norvegicus [6] = assay: Tested for locomotor activity in rat by peroral administration; type: functional; conditions: po
Mus musculus [7] = assay: Tested for locomotor activity (LMA) in mouse by intraperitoneal administration; type: functional; conditions: ip
Rattus norvegicus [8] = assay: Tested for locomotor activity (LMA) in rat by peroral administration; type: functional; conditions: po
Rattus norvegicus [9] = assay: Tested for % rats with stereotypy at the dose of 116 mg/Kg administered perorally; type: functional
Rattus norvegicus [10] = assay: Tested for inhibition of Dopamine neuronal firing in rat at the dose of 2.5 mg/Kg by intraperitoneal administration; type: functional; conditions: ip
Rattus norvegicus [11] = assay: Tested for % rats with stereotypy at the dose of 0.3 mg/Kg subcutaneous administration; type: functional
Rattus norvegicus [12] = assay: Percent reversal of the increase inDOPA levels in the striatum of GBL-treated rats when administered intraperitoneally was determined; type: functional; conditions: ip
Rattus norvegicus [13] = assay: Tested for locomotor activity in rat by subcutaneous administration; conditions: sc
Rattus norvegicus [14] = assay: Tested for inhibition of dopamine neuronal firing in rat at the dose of 0.25 mg/Kg by intraperitoneal administration; type: functional; conditions: ip
Mus musculus [15] = assay: Tested for locomotor activity (LMA) in mouse by intraperitoneal administration for the dose >30 mg/kg; type: functional; conditions: ip
Rattus norvegicus [16] = assay: Tested for locomotor activity (LMA) in rat by peroral administration for the dose for the dose of >10 mg/kg; type: functional; conditions: po
Rattus norvegicus [17] = assay: Tested for % rats with stereotypy at the dose of 61 mg/Kg administered perorally; type: functional
Rattus norvegicus [18] = assay: Tested for locomotor activity in Rat by peroral administration; type: functional; conditions: po
Rattus norvegicus [19] = assay: Tested for % rats with stereotypy at the dose of 20 mg/Kg administered perorally; type: functional

T1 sequence (P61169 whole entry): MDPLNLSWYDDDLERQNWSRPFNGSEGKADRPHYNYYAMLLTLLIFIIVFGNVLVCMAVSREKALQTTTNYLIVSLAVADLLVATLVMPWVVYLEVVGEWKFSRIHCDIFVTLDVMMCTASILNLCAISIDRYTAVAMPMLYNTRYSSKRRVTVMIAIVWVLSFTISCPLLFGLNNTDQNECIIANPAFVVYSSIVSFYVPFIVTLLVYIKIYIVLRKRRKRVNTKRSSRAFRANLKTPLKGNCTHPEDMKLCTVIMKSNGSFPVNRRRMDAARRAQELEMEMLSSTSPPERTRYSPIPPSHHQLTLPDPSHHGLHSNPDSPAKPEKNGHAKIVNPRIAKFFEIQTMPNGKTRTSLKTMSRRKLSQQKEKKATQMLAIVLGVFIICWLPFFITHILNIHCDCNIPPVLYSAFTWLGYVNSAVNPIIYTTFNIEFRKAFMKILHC

| Structure (SMILES) | IC50 (D(2) dopamine receptor [1]) | IC50 (D(2) dopamine receptor [2]) | IC50 (D(1A) dopamine receptor) | ED50 (Rattus norvegicus [6]) | ED50 (Mus musculus [7]) | Reversal (Rattus norvegicus [4]) | ED50 (Rattus norvegicus [8]) | further results |
| --- | --- | --- | --- | --- | --- | --- | --- | --- |
| C1=C(c2ccccc2)CCC(CCN2CCN(c3ccccn3)CC2)C1 (racemic) | 0.088 µM | 0.412 µM | > 6 µM | 6.7 mg/kg | – | – | – | Activity (Rattus norvegicus [3]): 0%; Reversal % at 10 mg/kg (Rattus norvegicus [4]): 50%; inhibition in vivo at 2.5 mg/kg (Rattus norvegicus [5]): 41% |
| C1=C(c2ccccc2)CCC(CN2CCN(c3ccccn3)CC2)C1 (stereo not drawn) | – | ~10 µM | – | – | ~30 mg/kg | – | – | – |
| C1=C(c2cccs2)CCC(CCN2CCN(c3ccccn3)CC2)C1 (stereo not drawn) | – | 0.436 µM | – | – | 8.4 mg/kg | 46% | 13 mg/kg | – |
| C1=C(c2ccccc2)CCC(N2CCN(c3ccccn3)CC2)C1 (stereo not drawn) | – | 0.6 µM | – | – | 1 mg/kg | – | > 30 mg/kg | – |
| C1=C(c2ccccn2)CCC(N2CCN(c3ccccn3)CC2)C1 (stereo not drawn) | – | 1.18 µM | – | – | 0.9 mg/kg | 75% | 5.8 mg/kg | – |
| C1=C(c2ccccc2)CC[C@@H](CCN2CCN(c3ccccn3)CC2)C1 | 0.064 µM | 0.545 µM | > 6 µM | 9.1 mg/kg | – | – | – | Activity (Rattus norvegicus [9]): 60%; Reversal % at 10 mg/kg (Rattus norvegicus [4]): 57%; inhibition in vivo at 2.5 mg/kg (Rattus norvegicus [10]): 58% |
| C1=C(c2cccs2)CCC(N2CCN(c3ccccn3)CC2)C1 (stereo not drawn) | – | 0.352 µM | – | – | 9.3 mg/kg | – | > 30 mg/kg | – |
| CN1CCc2cccc3c2[C@H]1Cc1ccc(O)c(O)c1-3 [APOMORPHINE] | – | – | – | > 30 mg/kg | – | – | – | Activity (Rattus norvegicus [11]): 100%; ED50 (Rattus norvegicus [12]): 0.3 mg/kg; ED50 (Rattus norvegicus [13]): 0.03 mg/kg; inhibition in vivo at 0.25 mg/kg (Rattus norvegicus [14]): 100% |
| C1=C(c2cccs2)CCC(CN2CCN(c3ccccn3)CC2)C1 (stereo not drawn) | – | 2.43 µM | – | – | > 30 mg/kg | – | – | – |
| C1=C(c2ccccn2)CCC(CCN2CCN(c3ccccn3)CC2)C1 (stereo not drawn) | – | 0.128 µM | – | – | – | 89% | – | ED50 (Mus musculus [15]): 0.4 mg/kg; ED50 (Rattus norvegicus [16]): ~3 mg/kg |
| C1=C(c2ccccc2)CC[C@H](CCN2CCN(c3ccccn3)CC2)C1 | 0.082 µM | 0.704 µM | > 6 µM | – | – | – | – | Activity (Rattus norvegicus [17]): 0%; Reversal % at 10 mg/kg (Rattus norvegicus [4]): 49%; ED50 (Rattus norvegicus [18]): 6.1 mg/kg; inhibition in vivo at 2.5 mg/kg (Rattus norvegicus [5]): 38% |
| CN1CCC=C2c3nc(N)sc3CCC21 (racemic) | 0.202 µM | 2.92 µM | > 10 µM | 0.8 mg/kg | – | – | – | Activity (Rattus norvegicus [19]): 0%; ED50 (Rattus norvegicus [12]): 0.7 mg/kg; inhibition in vivo at 2.5 mg/kg (Rattus norvegicus [5]): 99% |
| C1=C(c2ccccc2)CCC(CCN2CCN(c3ccccn3)CC2)C1 (stereo not drawn) | – | – | – | – | 2.1 mg/kg | 50% | 6.7 mg/kg | – |
